In patent publication US20250212876A1, “METHOD FOR CONTROLLING PLANT DISEASES” (SUMITOMO CHEMICAL COMPANY, LIMITED, priority 2022, published 2025):

What was measured:
Type in all cases: cell-based
[1] = test system: Barley scald fungus (Rhynchosporium secalis); assay: Test Example 3: control test against barley scald fungus, titer plate growth; conditions: 150 ppm in DMSO, 1 μL + 150 μL PDB broth; 18° C., 7 days; absorbance at 550 nm
Protocol: (§1) The untreated groups in the Test Example 3, the Test Example 5 and the Test Example 6 represents a treated group in which the procedures are carried out under the same conditions as those described in each of Test Examples except that DMSO is dispensed in place of a diluted DMSO solution containing the Present compound. The untreated groups in the Test Example 7 and the Test Example 15 represents a test in which the procedures are carried out under the same conditions as those described in each of the Test Examples except that DMSO is dispensed in place of a diluted DMSO solution containing the present compound. […]
(§2) The present compound 77 was diluted with DMSO so as to contain 150 ppm, and 1 μL of the dilution solutions were dispensed into titer plate (96 well), and thereafter, thereto was then dispensed 150 μL of a potato dextrose broth (PDB broth) to which conidia of Rhynchosporium secalis were inoculated in advance. This plate was cultured at 18° C. for 7 days, thereby allowing Rhynchosporium secalis to undergo proliferation, and the absorbance at 550 nm of each well of the titer plate was then measured to determine a degree of growth of the Rhynchosporium secalis.

[2] = test system: Peach scab fungus (Cladosporium carpophilum); assay: Test Example 5: control test against peach scab fungus, titer plate growth; conditions: 150 ppm in DMSO, 1 μL + 150 μL PDB broth; 18° C., 5 days; absorbance at 550 nm
Protocol: as §1
as §2, with “of Cladosporium carpophilum” for “of Rhynchosporium secalis”, “for 5” for “for 7”, “allowing Cladosporium carpophilum” for “allowing Rhynchosporium secalis”, “the Cladosporium carpophilum.” for “the Rhynchosporium secalis.”

[3] = test system: Rice brown spot fungus (Cochliobolus miyabeanus); assay: Test Example 6: control test against rice brown spot fungus, titer plate growth; conditions: 150 ppm in DMSO, 1 μL + 150 μL YB liquid medium; 23° C., 3 days; absorbance at 550 nm
Protocol: The untreated groups in the Test Example 3, the Test Example 5 and the Test Example 6 represents a treated group in which the procedures are carried out under the same conditions as those described in each of Test Examples except that DMSO is dispensed in place of a diluted DMSO solution containing the Present compound. The untreated groups in the Test Example 7 and the Test Example 15 represents a test in which the procedures are carried out under the same conditions as those described in each of the Test Examples except that DMSO is dispensed in place of a diluted DMSO solution containing the present compound. Also, the untreated groups in the Test Example 8, the Test Example 9, the Test Example 10 and the Test Example 11 represents a test in which a diluted aqueous solution of the formulation containing the present compound isn't sprayed.
The present compound 77 was diluted with DMSO so as to contain 150 ppm, and 1 μL of the dilution solutions were dispensed into titer plate (96 well), and thereafter, thereto was then dispensed 150 μL of YB liquid medium to which conidia of Cochliobolus miyabeanus were inoculated in advance. This plate was cultured at 23° C. for 3 days, thereby allowing Cochliobolus miyabeanus to undergo proliferation, and the absorbance at 550 nm of each well of the titer plate was then measured to determine a degree of growth of the Cochliobolus miyabeanus.

Measured: growth in the treated well compared to the growth in an untreated well

O=S(=O)(c1cccc(-c2cc(F)c(Cl)c(F)c2)c1)c1ccncn1 [compound 77]
≤ 50%: all assays above
